From article PMC4160570, “Effects of proarrhythmic drugs on relaxation time and beating pattern in rat engineered heart tissue” (Basic Research in Cardiology, 2014)
pIC50: −log10 of the molar value. Where two headings read alike, the source gives them in different places.

Assays:
[1] = system: rat engineered heart tissue (EHT); test: Video-optical analysis of contractile parameters of spontaneously beating rat EHTs (50 nM epinephrine); conditions: for effect on T2, drug alone: 1–1,000 nM, even at high concentrations (1,000 nM); for concentration response curve (T2) in the presence of 4AP: 4AP 3 mM; for significant T2 prolongation (p<0.05 and at least 15 % vs baseline): 1-, 10-, 100-fold FTPC, 50 nM epinephrine, n = 4–8
[2] = system: IKr; conditions: read-out: IC50 (IKr blocker); cited from earlier work
[3] = system: rat engineered heart tissue (EHT)
[4] = system: rat engineered heart tissue (EHT); test: Ca^2+ transients (Fura-2) and contraction of EHTs under electrical stimulation and perfusion; type: cell-based; conditions: for effect on relaxation time T2 under electrical stimulation / effect on intracellular Ca^2+ transients (duration): 2 Hz, 4AP 10 mM, epinephrine 50 nM; for effect on intracellular Ca^2+ transients (duration): in absence and presence of 4AP; for reversibility of effects: after washout; for time course of effects under continuous electrical stimulation and perfusion: quinidine 100 µM, erythromycin 1 mM
Experimental: Intracellular Ca^2+-transients were analyzed in parallel with force under electrical stimulation and continuous perfusion using a novel setup as described previously. The setup consisted of an inverted microscope, a temperature- and O2/CO2-controlled chamber for the 24-well EHT plate, a flow rate-controlled perfusion system, platinum–iridium wire electrodes for field stimulation, a fluorescence light source (IonOptix Hyperswitch), a photomultiplier, video cameras and software (both IonOptix) for the evaluation of contractile activity (edge detection mode). Experiments were done at 4 ml flow/min (per well) and 2–4 Hz stimulation in modified Tyrode’s solution.
For Fura loading, EHTs were incubated in Tyrode’s solution containing 10 µM Fura2-AM (Invitrogen F1221) and Cremophor EL ([…]; Sigma C5135) for 2 h at 37 °C. The ratio of light emission (510 nm) at excitation with 340 and 380 nm light (F340/380 ratio) was used as an index of cytosolic Ca^2+-concentration.
To differentiate between effects on beating rate and relaxation and to analyse intracellular Ca^2+-transients in addition to force, two drugs were additionally analysed under pacing at defined beating rate using a novel modified IonOptix (IonOptix Corporation, Milton, MA, USA) setup. This custom-made setup allowed continuous electrical stimulation and perfusion of EHTs during the measurement. The setup consisted of an inverted microscope, a temperature- and O2/CO2-controlled chamber for the 24-well EHT plate mounted on the microscope stage, a flow rate-controlled perfusion system, platinum wire electrodes for field stimulation and a video camera and software (both IonOptix) for the evaluation of contractile activity (edge detection mode). Experiments were done under a flow rate of approximately 4 ml/min (per well) and stimulation at 2-4 Hz and 7 V. Measurements were done in a modified Tyrode’s solution (mM: NaCl 120, KCl 5.4, MgCl2 1.0, CaCl2 1.8, NaH2PO4 0.4, NaHCO3 22.6, glucose 5.0, Na2EDTA 0.05, ascorbic acid 0.3). EHTs were equilibrated for 20 min in Tyrode’s solution (baseline) and then exposed to the respective drug for up to 20 min. Reversibility of drug effects was determined after 20 min perfusion in drug-free Tyrode’s solution.
For measurement of intracellular Ca^2+-transients, EHTs were incubated in Tyrode’s solution containing 10 µM Fura2-AM (Invitrogen F1221) and the non-ionic detergent Cremophor EL (0.0075%; Sigma C5135) for 2 h at 37 °C. After washing the EHTs for 10 min in Tyrode’s solution, measurements under perfusion and stimulation of Ca^2+-transients were performed in the same way as for force of contraction, but signals were evaluated by a 10x objective (instead of 1.25x for force) and a photomultiplier.The ratio of the emission intensity of light (510 nm) from EHTs alternatively excited at 340 and 380 nm (F340/380 ratio) was used as an index of cytosolic Ca^2+-concentration. Data were evaluated either with the IonOptix software or a customized software or manually when peaks were severely deformed.

[5] = system: IKs; design: method as in PMID 23896226; conditions: read-out: IC50 (IKs blocker); cited from earlier work
[6] = system: Ito; design: method as in PMID 23896226; conditions: cited from earlier work
[7] = system: ICa; design: method as in PMID 23896226; conditions: cited from earlier work
[8] = system: rat; conditions: in vivo; cited from earlier work
[9] = system: rat engineered heart tissue (EHT); test: Action potentials recorded with intracellular microelectrodes in intact, field-stimulated EHTs; type: cell-based
Experimental: Action potentials (APs) were recorded with standard intracellular microelectrodes in intact EHTs. […]. Preparations were field-stimulated for at least 1 h (2 Hz) before data acquisition. APs were analyzed off-line using the LabChart® software (ADInstruments, Spechbach, Germany).

[10] = system: Ito; design: method as in PMID 17446473; conditions: adult rat ventricular myocytes; cited from earlier work
[11] = system: rat engineered heart tissue (EHT); conditions: cited from earlier work
[12] = system: mouse; conditions: in vivo; cited from earlier work

Question: For `Cc1cccc(CCN2CCC(C(=O)c3ccc(NS(C)(=O)=O)cc3)CC2)n1` [E-4031], which “effect on T2 at 100-fold IC50 concentrations” value [1] is on record?
Answer: […]

Question: What about the “effect on T2, drug alone” value [1] of the same compound?
Answer: Neither E-4031 nor HMR-1556 affected T2

Question: What does the source list for `c1ccc(C2(c3ccccc3)CC2C2=NCCN2)cc1` (centres unmarked) [Cibenzoline]?
Answer: published IKs IC50 relative to threshold for group 1 or 2 effects [3]: at or below the threshold for group 1 or 2 effects; significant T2 prolongation (p<0.05 and at least 15 % vs baseline) ([3]; Wistar, rat): Significant T2 prolongations

Question: Which “effect on relaxation time T2 under electrical stimulation” value [4] does the source give for `CNC[C@H](O)c1ccc(O)c(O)c1` [epinephrine] here?
Answer: shortened T2

Question: And the “effect on intracellular Ca^2+ transients (duration)” value [4]?
Answer: shortened it

Question: And the “change of frequency of beating in the burst” value ([1]; epinephrine 50 nM)?
Answer: 15–20%

Question: What about the “beating frequency in the bursts” value ([1]; epinephrine 50 nM, 4.4-4.6 Hz without drug) of the same compound?
Answer: 5-5.6 Hz

Question: With `CN([C@H]1c2cc(OCCCC(F)(F)F)ccc2OC(C)(C)[C@@H]1O)S(C)(=O)=O` [HMR-1556] as the compound, how does the pIC50 [5] read?
Answer: 7.98

Question: And the pIC50 [6]?
Answer: 4.47

Question: And the pIC50 [7]?
Answer: 4.56

Question: What about the “effect on T2, drug alone” value [1] of the same compound?
Answer: Neither E-4031 nor HMR-1556 affected T2

Question: What about the “concentration response curve (T2) in the presence of 4AP” value [1] of the same compound?
Answer: shifted to the left

Question: For `COc1ccc([C@@H]2Sc3ccccc3N(CCN(C)C)C(=O)[C@@H]2OC(C)=O)cc1` [Diltiazem], which negative inotropic effect [3] is on record?
Answer: lack of significant negative inotropic effects

Question: What about the T2-effective concentrations ([3]; Wistar, rat) of the same compound?
Answer: 100 fold FTPC

Question: And the “significant T2 prolongation (p<0.05 and at least 15 % vs baseline)” value ([3]; Wistar, rat)?
Answer: Significant T2 prolongations

Question: Which “significant T2 prolongation (p<0.05 and at least 15 % vs baseline)” value ([3]; Wistar, rat) does the source give for `CC(=O)N1CCN(c2ccc(OCC3COC(Cn4ccnc4)(c4ccc(Cl)cc4Cl)O3)cc2)CC1` (centres unmarked) [Ketoconazole] here?
Answer: Significant T2 prolongations

Question: And the LD50 [8]?
Answer: 166 mg∙kg^-1 (rat, p. o.)

Question: Which “action potential duration (APD90)” value ([9]; 4AP 10 mM, 2 Hz, increased from a mean of 113 ms (vehicle control)) does the source give for `Nc1ccncc1` [4-aminopyridine (4AP), 4-aminopyridine] here?
Answer: 175 ms

Question: What about the pIC50 [10] of the same compound?
Answer: 3.01

Question: What about the “effect on relaxation time T2 under electrical stimulation” value [4] of the same compound?
Answer: increased T2

Question: And the “effect on intracellular Ca^2+ transients (duration)” value [4]?
Answer: prolonged intracellular Ca^2+ transients

Question: And the “concentration starting to prolong T2 relative to IC50 in adult rat cardiac myocytes” value ([1]; 3 mM)?
Answer: 3 fold IC50

Question: And the “effect on beating pattern” value ([1]; 4AP 10 mM)?
Answer: induced beat-to-beat irregularities, variations of twitch amplitude and aftercontractions

Question: And the “prolongation of relaxation (T2)” value ([1]; 4AP 30 mM, cumulative, 45 min per concentration)?
Answer: +502%

Question: What about the “concentration at which T2 prolongation reaches significance” value ([1]; cumulative concentrations, 45 min each) of the same compound?
Answer: 3 mM

Question: What does the source list for `C=C[C@H]1C[N@@]2CC[C@H]1C[C@@H]2[C@@H](O)c1ccnc2ccc(OC)cc12` [Quinidine]?
Answer: effect on relaxation time T2 in a previous EHT study [11]: caused concentration-dependent prolongations of relaxation time T2; action potential duration (APD90) ([9]; quinidine 100 µM, increased from 179 ms): 232 ms; reversibility of effects [4]: fully reversible after washout; time course of effects under continuous electrical stimulation and perfusion [4]: marked, time-dependent prolongation of T2 and a reduction in force, which was then followed by the development of a slower rhythm independent of pacing; T2-threshold concentration [1]: 100 µM; published IC50 values for hERG and Ito relative to threshold for T2 prolongation or irregularity [1]: at or below the threshold for T2 prolongation or irregularity; published IKs IC50 relative to threshold for group 1 or 2 effects [1]: at or below the threshold for group 1 or 2 effects; significant T2 prolongation (p<0.05 and at least 15 % vs baseline) [1]: Significant T2 prolongations

Question: For `CCS(=O)(=O)N(C)[C@H]1c2cc(C#N)ccc2OC(C)(C)[C@@H]1O` (racemic) [chromanol 293b], which “effect on relaxation time T2 in a previous EHT study” value [11] is on record?
Answer: caused concentration-dependent prolongations of relaxation time T2

Question: What about the “prolongation of relaxation (T2)” value ([11]; seen previously in EHTs) of the same compound?
Answer: +710%

Question: Which “effect on relaxation time T2 in a previous EHT study” value [11] does the source give for `CC[C@H]1OC(=O)[C@H](C)[C@@H](O[C@H]2C[C@@](C)(OC)[C@@H](O)[C@H](C)O2)[C@H](C)[C@@H](O[C@@H]2O[C@H](C)C[C@H](N(C)C)[C@H]2O)[C@](C)(O)C[C@@H](C)C(=O)[C@H](C)[C@@H](O)[C@]1(C)O` [Erythromycin] here?
Answer: caused concentration-dependent prolongations of relaxation time T2

Question: And the LD50 [8]?
Answer: 4.600 mg∙kg^-1 (rat, p. o.) 2.580 mg∙kg^-1 (mouse, p. o.)

Question: And the reversibility of effects [4]?
Answer: fully reversible after washout

Question: And the “time course of effects under continuous electrical stimulation and perfusion” value [4]?
Answer: first prolonged T2, reduced force and then induced an autonomous chaotic contraction pattern

Question: And the “significant T2 prolongation (p<0.05 and at least 15 % vs baseline)” value [1]?
Answer: Significant T2 prolongations

Question: And the “irregular beating as the primary effect” value ([1]; sinusoidal fluctuation of twitch amplitudes, time dependent)?
Answer: induced irregular beating

Question: What about the LD50 [12] of the same compound?
Answer: 4.600 mg∙kg^-1 (rat, p. o.) 2.580 mg∙kg^-1 (mouse, p. o.)

Question: For `COc1ccc(CCN(C)CCCC(C#N)(c2ccc(OC)c(OC)c2)C(C)C)cc1OC` (centres unmarked) [Verapamil], which “effect on force (group 3)” value [3] is on record?
Answer: decrease in force

Question: And the “effect on the T2-prolonging effect of 4AP” value [1]?
Answer: no discernible effect
